{"source": "paper PMC9130233", "about": "“An inhibitor of RORγ for chronic pulmonary obstructive disease treatment” (Scientific Reports, 2022)", "key": {"RARα": {"system": "T1, RARα", "T1 construct": "purchased Invitrogen", "assay": "TR-FRET selectivity binding assay, RARα", "text": "(§1) Based on the homology of the ligand binding domains, 3 different isoforms of ROR (hRORα, hRORβ and hRORγ) are reported. Small variations in the LBD regions possibly lead to differences in competitive binding between the nuclear receptors of the ROR isoforms (Fig. 1b). Similar to the assessment of RORγ binding assay, TR-FRET binding assays were also used to assess the affinity of PCCR-1 for other ROR isoforms. […] This was reconfirmed in cellular functional assays for the selected isoforms and nuclear receptors using Gal4 DBD with luciferase reporter system from Indigo (PA, USA). […] In addition, both cellular agonist and antagonist effects as well as for enzyme activity were evaluated with a known reference compound for each target, using a radiolabeled method (Eurofins Cerep, France, Table 1).\n(§2) For selectivity, the ROR isoforms RORα, FXR, LXRα, LXRβ, RXR, RARα were incubated with compound for 60 min at 22 °C followed by detection mix containing respective agonist (All trans retinoic acid for RARα, T0901317 for LXRα, LXRβ, 9-cis Retinoic acid for RXR, GW-4064 for FXR) and coactivator peptide (FD22 for RORα, PGC1α for RXR, RARα, TRAP220 for LXRα, LXRβ, SRC2-2 for FXR) and Tb-anti GST antibody prepared in assay buffer were added into a 384-well white plate. Reading taken after overnight incubation and the data analysis done as per the protocol mentioned in RORγt-LBD and co-activator ligand binding assay."}, "Alpha 1D": {"biological_target": "T2, Alpha 1D (Homo sapiens, UniProt P25100)", "T2 construct": "Eurofins Cerep", "T2 sequence (P25100 whole entry)": "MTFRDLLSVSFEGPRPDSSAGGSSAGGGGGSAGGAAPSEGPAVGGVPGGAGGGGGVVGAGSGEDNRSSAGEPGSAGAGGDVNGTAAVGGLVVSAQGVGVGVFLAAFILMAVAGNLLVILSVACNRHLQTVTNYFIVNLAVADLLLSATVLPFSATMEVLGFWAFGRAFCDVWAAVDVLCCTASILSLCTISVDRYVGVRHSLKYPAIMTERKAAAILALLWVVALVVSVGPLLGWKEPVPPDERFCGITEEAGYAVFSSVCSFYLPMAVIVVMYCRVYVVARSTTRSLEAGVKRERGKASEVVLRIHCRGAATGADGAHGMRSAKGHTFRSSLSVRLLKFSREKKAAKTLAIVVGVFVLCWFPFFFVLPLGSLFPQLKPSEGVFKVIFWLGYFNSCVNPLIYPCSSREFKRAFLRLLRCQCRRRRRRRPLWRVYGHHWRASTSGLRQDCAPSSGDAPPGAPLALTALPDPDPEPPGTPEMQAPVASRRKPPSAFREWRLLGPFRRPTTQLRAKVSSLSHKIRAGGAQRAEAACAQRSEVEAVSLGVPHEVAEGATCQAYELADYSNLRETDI", "assay": "Cerep panel, Alpha 1D", "text": "as §1"}, "[1]": {"biological_target": "non RORγ isoforms and other major nuclear receptors", "assay": "TR-FRET binding assays, other ROR isoforms and major nuclear receptors (summary)", "text": "as §1\nas §2, with “Reading taken after overnight incubation and the data analysis done as per the protocol mentioned in RORγt-LBD and co-activator ligand binding assay.” left out"}, "RORα": {"system": "T3, RORα", "T3 construct": "purchased Invitrogen", "assay": "TR-FRET selectivity binding assay, RORα", "set-up": "species or system human", "text": "as §1, §2"}, "IL-22 in hPBMCs": {"system": "IL-22 in hPBMCs", "assay": "IL-22 release, human PBMC, TCR activating conditions", "type": "cell-based", "conditions": "read-out: hIL-22 IC50", "experimental": "An increase in the levels of Th17 dependent cytokine in the peripheral blood of COPD patients as compared to the Th1 and Th2 dependent cytokines has been well documented in a subset of COPD patients. A comparative study was performed under TCR activating conditions to evaluate the potencies of PCCR-1 for inhibition across Th1, Th2 and Th17 dependent cytokines using hPBMCs.\nHuman whole blood from healthy subjects were procured from Clinical Research Unit, Sanpada. Clinical Research Center Glenmark (Plot No. D, 508, Turbhe, TTC Industrial Area, MIDC, Sanpada, Navi Mumbai, Maharashtra 400705, India). PBMCs were isolated using heparinized blood with Ficoll Histopaque. Briefly, the cells were seeded in 96-well plate pre-coated with human anti-CD3 mAb (10 µg/mL), post 30 min of compound treatment cells were stimulated with human anti-CD28 mAb (2 µg/mL). After 72 h of culture, the supernatant was collected for Th1/Th2 cytokines; IFN-γ, IL-2, IL-4 and IL-10 and measured by ELISA. For Th17 polarization assay, the following cytokine cocktail was used: IL-1β (10 ng/ml), IL-23(10 ng/ml), IL-6 (50 ng/ml), TGF-β1 (3 ng/ml), IL-2 (20U/ml) and supernatants were used for measuring IL-17 and IL-22 by ELISA."}, "[2]": {"system": "IL-17 release from COPD patient whole blood", "assay": "IL-17 release, whole blood from COPD patients", "type": "cell-based", "conditions": "Homo sapiens; TCR stimulated, n = 5; read-out: IL-17 IC50, COPD patient's sample: WB", "experimental": "(§3) Whole blood and BAL samples from COPD patients were obtained from Multispecialty hospital, Mumbai post approval from ethics committee and informed consent of patients. 30–40 mL Broncho alveolar lavage (BALf) was collected per patient and stored in ice. Blood was collected in heparin vaccutainer as per approved protocol. Both the samples were processed within 2 h of collection. BALF was passed through 100-µm and 40-µm cell strainer to remove debris and mucus, the samples were centrifuged and the cells were re-suspended in RPMI 1640 complete medium. PBMCs from blood were isolated using Histopaque-1077 by density gradient centrifugation. Isolated BAL cells and PBMCs were seeded in 96 well coated with 10 µg/ml anti-CD3 and 2 µg/ml anti-CD2. Cells were further treated with different concentration of test compound for 60 min followed by stimulation with 20 µg/ml anti-CD28 and incubated for 48–72 h. The supernatant was used for estimating IL-17 by ELISA."}, "[3]": {"system": "IL-17A release in canine PBMC", "assay": "IL-17A release, canine PBMC, anti-CD3 + anti-CD28", "type": "cell-based", "conditions": "Canis lupus familiaris, anti-CD3 + anti-CD28, n = 6, read-out: Cellular activity: Canine IC50, IL-17A release", "experimental": "Inhibition of RORγ by PCCR-1 was also estimated in a functional assay by measuring the inhibition of Th17 dependent cytokine IL-17A release in human peripheral blood mononuclear cells (PBMCs), mouse splenocytes and canine PBMC stimulated with their respective anti-CD3 and anti-CD28 antibodies.\nCanine PBMCs were procured from Lonza (Cologue, Germany). Frozen canine PBMCs was quickly thawed in a 37 °C water bath and cells were seeded in 96-well plates coated with canine anti-CD3mAb (30 µg/mL). Cells were further treated with the compound similar to human PBMC with co-stimulation of canine anti-CD28 mAb (10 µg/mL). After 72 h of incubation the supernatant was collected for estimating canine IL-17 by ELISA."}, "human RORγt": {"biological_target": "T4, human RORγt (Homo sapiens, UniProt P51449)", "T4 construct": "Gal4-DBD human RORγt hinge LBD/pcDNA 3.1; expressed in transfected cells; host or cells: HEK293", "T4 sequence (P51449 97-518)": "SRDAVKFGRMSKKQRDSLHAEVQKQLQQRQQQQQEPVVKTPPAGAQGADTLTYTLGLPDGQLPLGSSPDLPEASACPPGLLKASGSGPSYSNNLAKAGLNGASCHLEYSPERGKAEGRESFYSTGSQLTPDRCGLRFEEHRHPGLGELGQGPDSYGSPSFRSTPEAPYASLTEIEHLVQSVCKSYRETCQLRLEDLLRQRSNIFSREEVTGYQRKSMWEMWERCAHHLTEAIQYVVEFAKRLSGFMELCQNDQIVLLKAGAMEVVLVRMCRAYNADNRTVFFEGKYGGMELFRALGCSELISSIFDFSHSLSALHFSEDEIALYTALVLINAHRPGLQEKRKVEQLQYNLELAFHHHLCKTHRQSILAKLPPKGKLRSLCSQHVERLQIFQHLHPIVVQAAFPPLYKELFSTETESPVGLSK", "assay": "RORγ transactivation assay in transfected HEK293 cells", "type": "cell-based", "conditions": "HEK293, n = 4; read-out: potency, inhibition of human RORγt in transactivation assay", "experimental": "For RORg transactivation assay the HEK293 cells were seeded in 100 mm dish and transfected with 4.5 µg total DNA (2.25 µg of pGL4.31 Luc2/GAL4-UAS hygro and 2.25 µg Gal4-DBD human RORγt hinge LBD/pcDNA 3.1 and 0.112 µg of pRL-CMV using Effectene transfection reagent (Qiagen). After 16–20 h post transfection, cells were reseeded at the density of 0.05 M cells per well of 96 well plate in DMEM high glucose containing 2% charcoal stripped serum. 4–6 h post seeding, PCCR-1 treatment was given for 24 h, followed by cells lysis with 1X Passive Lysis buffer of Dual luciferase kit (Promega). The signal was detected after addition of stop and glo reagent of the kit in luminescence mode."}, "hERG": {"biological_target": "hERG (Homo sapiens, UniProt Q12809)", "sequence (Q12809 whole entry)": "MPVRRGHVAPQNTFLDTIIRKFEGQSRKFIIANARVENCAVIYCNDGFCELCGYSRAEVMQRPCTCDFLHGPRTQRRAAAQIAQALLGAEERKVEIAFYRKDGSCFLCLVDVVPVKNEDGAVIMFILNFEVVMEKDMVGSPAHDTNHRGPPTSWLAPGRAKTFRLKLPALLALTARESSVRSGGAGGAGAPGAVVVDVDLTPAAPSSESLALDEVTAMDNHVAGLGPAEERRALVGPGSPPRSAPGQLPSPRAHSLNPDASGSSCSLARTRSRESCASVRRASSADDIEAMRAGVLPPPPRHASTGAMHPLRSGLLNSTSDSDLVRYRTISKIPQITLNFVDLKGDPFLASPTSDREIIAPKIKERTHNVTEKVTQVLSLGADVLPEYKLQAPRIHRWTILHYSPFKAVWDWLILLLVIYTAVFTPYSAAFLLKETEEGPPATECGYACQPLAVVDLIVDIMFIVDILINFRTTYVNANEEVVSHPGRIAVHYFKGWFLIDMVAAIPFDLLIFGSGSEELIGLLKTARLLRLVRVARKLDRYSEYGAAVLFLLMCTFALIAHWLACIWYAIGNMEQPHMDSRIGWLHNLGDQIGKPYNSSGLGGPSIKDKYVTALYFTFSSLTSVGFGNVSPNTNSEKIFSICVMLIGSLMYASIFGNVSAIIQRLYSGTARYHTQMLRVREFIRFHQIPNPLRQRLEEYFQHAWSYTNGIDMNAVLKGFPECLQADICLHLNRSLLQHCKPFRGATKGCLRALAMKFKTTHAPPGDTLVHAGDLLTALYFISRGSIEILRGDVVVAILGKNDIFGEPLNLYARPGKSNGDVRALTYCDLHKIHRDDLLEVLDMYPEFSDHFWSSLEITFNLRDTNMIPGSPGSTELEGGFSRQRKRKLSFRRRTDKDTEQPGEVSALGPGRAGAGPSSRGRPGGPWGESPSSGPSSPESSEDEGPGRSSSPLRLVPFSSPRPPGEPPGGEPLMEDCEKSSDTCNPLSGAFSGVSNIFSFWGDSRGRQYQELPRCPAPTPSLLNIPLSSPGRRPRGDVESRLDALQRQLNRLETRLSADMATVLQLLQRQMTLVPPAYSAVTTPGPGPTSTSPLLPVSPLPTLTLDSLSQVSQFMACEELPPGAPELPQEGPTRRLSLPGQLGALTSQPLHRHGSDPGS", "assay": "hERG", "conditions": "rated moderate"}, "[4]": {"system": "IL-17 release from COPD lung BALf cells", "assay": "IL-17 release, BALf cells from COPD patients", "type": "cell-based", "conditions": "Homo sapiens; TCR stimulated, n = 10; read-out: IL-17 IC50, COPD patient's sample: BAL", "experimental": "as §3"}}, "note": "Values joined by “and” are separate entries in the source; they are usually repeats but may differ in a detail not shown here. Identical values can stand only once.", "data": [{"smiles": "CCn1c(C(C)(C)Oc2ccc(F)cc2F)nc2cc(NC(=O)Cc3ccc(S(=O)(=O)CC)cc3)ccc21", "note": "[PCCR-1]", "values": [{"measurement": "% Inhibition RARα", "setting": "RARα; 1 µM", "value": 0.00, "unit": "%"}, {"measurement": "% Inhibition RARα", "setting": "RARα; 10 µM", "value": 0.00, "unit": "%"}, {"measurement": "Fold over hRORγ, RARα", "setting": "RARα; vs RORg IC50 31.87 nM", "value": "> 313.7", "unit": "fold"}, {"measurement": "IC50", "setting": "Alpha 1D", "value": 550, "unit": "nM"}, {"measurement": "IC50", "setting": "[1]; TR-FRET, read-out: IC50 for the rest of the non RORγ isoforms and other major nuclear receptors", "value": "> 10000", "unit": "nM"}, {"measurement": "fold selectivity over other ROR isoforms / nuclear receptors", "setting": "[1]; relative to RORγ", "value": "> 313.7 fold and > 300 fold"}, {"measurement": "% Inhibition RORα", "setting": "RORα; 1 µM", "value": 20.91, "unit": "%"}, {"measurement": "% Inhibition RORα", "setting": "RORα; 10 µM", "value": 19.82, "unit": "%"}, {"measurement": "Fold over hRORγ, RORα", "setting": "RORα; vs RORg IC50 31.87 nM", "value": "> 313.7", "unit": "fold"}, {"measurement": "IC50", "setting": "IL-22 in hPBMCs", "value": 297, "unit": "nM"}, {"measurement": "IC50", "setting": "[2]", "value": 5050, "unit": "nM"}, {"measurement": "IC50", "setting": "[3]", "value": 504, "unit": "nM"}, {"measurement": "IC50", "setting": "human RORγt", "value": 111, "unit": "nM"}, {"measurement": "IC50", "setting": "hERG", "value": 6000, "unit": "nM"}, {"measurement": "IC50", "setting": "[4]", "value": 522, "unit": "nM"}]}]}
